Data published in ChEMBL document CHEMBL1944572, “High-affinity fluorescent ligands for the 5-HT(3) receptor” (Bioorg Med Chem Lett, 2012).
Active and inactive are the calls of the source. The calls are words filed in the database; no cut-off is given here.

What was measured:
Format in all cases: cell-based
[1] = target: T1, 5-hydroxytryptamine receptor 3A (Homo sapiens) (UniProt P46098); assay: Binding affinity to human 5HT3A expressed in COS7 cells at 100 nM after 1 hr by fluorescence microscopy; conditions: COS-7
T1 sequence (whole entry): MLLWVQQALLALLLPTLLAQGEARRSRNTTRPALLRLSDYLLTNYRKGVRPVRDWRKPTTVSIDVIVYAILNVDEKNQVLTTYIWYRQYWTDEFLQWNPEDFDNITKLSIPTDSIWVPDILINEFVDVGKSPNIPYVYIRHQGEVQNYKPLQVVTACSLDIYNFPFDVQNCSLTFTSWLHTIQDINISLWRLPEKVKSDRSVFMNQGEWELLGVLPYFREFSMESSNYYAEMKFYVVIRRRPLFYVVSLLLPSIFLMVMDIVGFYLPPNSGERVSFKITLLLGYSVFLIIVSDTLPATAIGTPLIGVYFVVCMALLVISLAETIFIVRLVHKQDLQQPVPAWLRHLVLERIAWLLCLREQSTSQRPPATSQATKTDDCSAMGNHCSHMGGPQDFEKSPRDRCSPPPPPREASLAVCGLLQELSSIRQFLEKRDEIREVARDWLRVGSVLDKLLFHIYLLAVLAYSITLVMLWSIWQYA

[2] = target: T1, 5-hydroxytryptamine receptor 3A (Homo sapiens); assay: Binding affinity to human 5HT3A expressed in COS7 cells at 100 nM after 1 hr by fluorescence microscopy in presence of 10 uM ondansetron; conditions: COS-7
[3] = target: T2, 5-hydroxytryptamine receptor 3A (Homo sapiens, UniProt P46098); assay: Displacement of [3H]granisetron from human 5HT3A expressed in HEK293 cells after 1 hr by scintillation counting
T2 sequence (P46098 whole entry): T1 sequence (whole entry)

Row | Structure (SMILES) | Activity [1] | Activity [2] | Ki [3]
1 | CN1[C@@H]2CCC[C@H]1C[C@H](NC(=O)c1nn(CCCNC(=S)Nc3ccc(-c4c5ccc(=O)cc-5oc5cc(O)ccc45)c(C(=O)O)c3)c3ccccc13)C2 | Active | inactive | 
2 | CN1[C@@H]2CCC[C@H]1C[C@H](NC(=O)c1nn(CCCCNC(=S)Nc3ccc(-c4c5ccc(=O)cc-5oc5cc(O)ccc45)c(C(=O)O)c3)c3ccccc13)C2 | Active | inactive | 
3 | CC1=CC(C)=[N+]2C1=C(CCCOC(=O)CCCn1nc(C(=O)N[C@@H]3C[C@H]4CCC[C@@H](C3)N4C)c3ccccc31)c1c(C)cc(C)n1[B-]2(F)F | Active | Active | 
4 | CN1[C@@H]2CCC[C@H]1C[C@H](NC(=O)c1nn(CCCNc3ccc([N+](=O)[O-])c4nonc34)c3ccccc13)C2 | inactive |  | 
5 | CN1[C@@H]2CCC[C@H]1C[C@H](NC(=O)c1nn(CCCCNc3ccc([N+](=O)[O-])c4nonc34)c3ccccc13)C2 |  |  | Not Active
6 | CN(C)c1cccc2c(S(=O)(=O)NCCCn3nc(C(=O)N[C@H]4C[C@H]5CCC[C@@H](C4)N5C)c4ccccc43)cccc12 | inactive |  | 
7 | CCN(CC)c1ccc2cc(C(=O)NCCCCn3nc(C(=O)N[C@@H]4C[C@H]5CCC[C@@H](C4)N5C)c4ccccc43)c(=O)oc2c1 | inactive |  | 
8 | CCN(CC)c1ccc2cc(C(=O)NCCOc3cccc4c(C(=O)N[C@@H]5C[C@H]6CCC[C@@H](C5)N6C)nn(C)c34)c(=O)oc2c1 | inactive |  | 
